# Laboratory results from patent US9120749B2, “Quinoline derivatives and MELK inhibitors containing the same” (ONCOTHERAPY SCIENCE, INC., priority 2010, dated 2015).
# Counter-ions that a name gives are not always drawn. Like-named read-outs stand apart in the source and are kept apart here.
# Columns and labels:
# [1] = target: MELK (Homo sapiens, UniProt Q14680); assay: Kinase assay: MELK activity, phosphorylation of FITC-labeled histone H3 peptide measured by IMAP fluorescence polarization; assay type: biochemical; details: MELK kinase assay, IMAP fluorescence polarization, 50 micro-M ATP; read-out: IC50 (μM) (kinase assay)
# Sequence of MELK (Q14680 whole entry, looked up): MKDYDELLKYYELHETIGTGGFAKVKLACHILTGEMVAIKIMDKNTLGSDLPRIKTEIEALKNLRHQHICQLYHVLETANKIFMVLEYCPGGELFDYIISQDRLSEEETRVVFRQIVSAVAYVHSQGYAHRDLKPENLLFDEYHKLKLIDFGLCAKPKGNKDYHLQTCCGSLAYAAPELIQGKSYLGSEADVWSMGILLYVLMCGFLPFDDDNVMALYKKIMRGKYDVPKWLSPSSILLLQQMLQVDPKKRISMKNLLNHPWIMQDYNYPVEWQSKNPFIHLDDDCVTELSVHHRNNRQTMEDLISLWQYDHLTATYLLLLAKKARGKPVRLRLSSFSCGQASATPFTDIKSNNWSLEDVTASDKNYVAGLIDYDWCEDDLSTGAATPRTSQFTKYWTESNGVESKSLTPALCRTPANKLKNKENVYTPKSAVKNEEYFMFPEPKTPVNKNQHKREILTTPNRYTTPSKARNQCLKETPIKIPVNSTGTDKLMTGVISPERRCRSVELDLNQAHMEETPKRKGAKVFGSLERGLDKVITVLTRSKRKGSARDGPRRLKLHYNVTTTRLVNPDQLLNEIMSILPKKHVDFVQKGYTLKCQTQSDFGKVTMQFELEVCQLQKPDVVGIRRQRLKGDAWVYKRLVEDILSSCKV
# Procedure, shortened: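 Polarization of fluorescence served as the signal for MELK turnover of FITC-conjugated histone H3 peptide. Binding solution quenched each reaction, and plates stood 0.5 hour at room temperature before reading.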
# [2] = tested on: T47D cells; assay: Cell-based assay: anti-proliferative activity, Cell Counting Kit-8, 72 hours (T47D)
# Procedure, shortened: (§1)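 Target-specific cytotoxicity: seeded cells treated with MELK inhibitor candidates for 72 h, proliferation quantified via CCK-8, IC50 fitted.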
# [3] = tested on: HT-1197 cells; assay: Cell-based assay: anti-proliferative activity, Cell Counting Kit-8, 72 hours (HT-1197, negative control without MELK expression); details: HT1197 cells (negative control), 72 hours
# Procedure, shortened: as §1
# [4] = tested on: A549 cells; assay: Cell-based assay: anti-proliferative activity, Cell Counting Kit-8, 72 hours (A549); details: 72 hours
# Procedure, shortened: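 A549 cells were seeded in 96-well plates and exposed to candidate inhibitors for 72 hours. Cell growth was then measured with Cell Counting Kit-8, and IC50 values were calculated from the resulting growth data.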
# [5] = tested on: 22Rv1 cells; assay: Cell-based assay: anti-proliferative activity, Cell Counting Kit-8, 72 hours (22Rv1)
# [6] = tested on: DU4475 cells; assay: Cell-based assay: anti-proliferative activity, Cell Counting Kit-8, 72 hours (DU4475)
SMILES,IC50 [1],"IC50 ([2]; Homo sapiens, T47D, 72 h)","IC50 ([3]; Homo sapiens, HT1197, 72 h)","IC50 ([4]; Homo sapiens, A549, 72 h)",IC50 ([5]; Homo sapiens),"IC50 ([6]; Homo sapiens, DU-4475)",IC50 ([2]; 72 hours),IC50 [3],IC50 [4],IC50 [5],IC50 [6]
"CS(=O)(=O)c1cnc2ccc(-c3cc(Cl)c(O)c(Cl)c3)cc2c1Nc1ccc(N2CCCC(N)C2)nc1 (stereo not drawn) [Example 913, 4-(4-(6-(3-aminopiperidin-1-yl)pyridin-3-ylamino)-3-(methylsulfonyl)quinolin-6-yl)-2,6-dichlorophenol]",0.00094 µM,0.27 µM,100 µM,2.6 µM,0.58 µM,0.025 µM,,,,,
"CC(=O)c1cnc2ccc(-c3ccc4cc(O)ccc4c3)cc2c1N[C@H]1CC[C@H](CN(C)C)CC1 [Example 929, 1-(4-((1R,4R)-4-((dimethylamino)methyl)cyclohexyl)amino)-6-(6-hydroxynaphthalen-2-yl)quinolin-3-yl)ethanone hydrochloride]",0.064 µM,3.3 µM,3.9 µM,0.87 µM,0.71 µM,2.8 µM,,,,,
"CS(=O)(=O)c1cnc2ccc(-c3cc(F)c(O)c(Cl)c3)cc2c1Nc1ccc(N2CCCC(N)C2)nc1 (stereo not drawn) [Example 909, 4-(4-(6-(3-aminopiperidin-1-yl)pyridin-3-ylamino)-3-(methylsulfonyl)quinolin-6-yl)-2-chloro-6-fluorophenol]",0.0016 µM,0.19 µM,10 µM,2.8 µM,0.44 µM,0.042 µM,,,,,
"CC(=O)c1cnc2ccc(-c3cc(Cl)c(O)c(Cl)c3)cc2c1N[C@H]1CC[C@H](C(=O)N(C)C)CC1 [Example 865, (1r,4r)-4-((3-acetyl-6-(3,5-dichloro-4-hydroxyphenyl)quinolin-4-yl)amino)-N,N-dimethylcyclohexanecarboxamide hydrochloride]",0.0093 µM,0.38 µM,3.9 µM,0.86 µM,1.5 µM,0.94 µM,,,,,
"CN1CCC(n2cc(Nc3c(S(C)(=O)=O)cnc4ccc(-c5cc(Cl)c(O)c(Cl)c5)cc34)cn2)CC1 [Example 899, 2,6-dichloro-4-(4-((1-(1-methyl-piperidin-4-yl)-1H-pyrazol-4-yl)amino)-3-(methylsulfonyl)quinolin-6-yl)phenol hydrochloride]",0.0017 µM,1.6 µM,10 µM,4 µM,1.5 µM,0.26 µM,,,,,
"CC(=O)c1cnc2ccc(-c3cc(F)c(O)c(Cl)c3)cc2c1N[C@H]1CC[C@H](NC(=O)[C@@H]2CCCN2)CC1 [Example 921, (S)—N-((1R,4S)-4-(3-acetyl-6-(3-chloro-5-fluoro-4-hydroxyphenyl)quinolin-4-ylamino)cyclohexyl)pyrrolidine-2-carboxamide]",0.012 µM,0.048 µM,10 µM,1.2 µM,0.21 µM,0.068 µM,,,,,
"CC(=O)c1cnc2cc(C)c(-c3cc(Cl)c(O)c(Cl)c3)cc2c1Nc1ccc(N2CCN(C)CC2)nc1 [Example 866, 1-(6-(3,5-dichloro-4-hydroxyphenyl)-7-methyl-4-((6-(4-methylpiperazin-1-yl)pyridin-3-yl)amino)quinolin-3-yl)ethanone hydrochloride]",0.34 µM,2.4 µM,4.5 µM,2.3 µM,4.1 µM,2.9 µM,,,,,
"CN(C)C[C@H]1CC[C@H](Nc2c(C(=O)C(C)(C)C)cnc3ccc(-c4cc(F)c(O)c(Cl)c4)cc23)CC1 [Example 919, 1-(6-(3-chloro-5-fluoro-4-hydroxy-phenyl)-4-((1R,4R)-4-((dimethylamino)methyl)cyclohexyl)amino)quinolin-3-yl)-2,2-dimethylpropan-1-one hydrochloride]",0.034 µM,1.9 µM,6.4 µM,4.3 µM,3.5 µM,2.5 µM,,,,,
CC(=O)c1cnc2ccc(-c3cc(F)c(O)c(Cl)c3)cc2c1N[C@H]1CC[C@H](NC(=O)C(N)C(C)C)CC1 (stereo partly drawn) [Example 907],0.0047 µM,0.016 µM,3.7 µM,0.18 µM,0.059 µM,0.033 µM,,,,,
"CC(=O)c1cnc2ccc(-c3cc(F)c(O)c(Cl)c3)cc2c1N[C@H]1CC[C@H](C(=O)NCCN(C)C)CC1 [Example 893, (1r,4r)-4-((3-acetyl-6-(3-chloro-5-fluoro-4-hydroxyphenyl)quinolin-4-yl)amino)-N-(2-(dimethylamino)ethyl) cyclohexanecarboxamide hydrochloride]",0.0052 µM,0.59 µM,100 µM,100 µM,1.6 µM,0.67 µM,,,,,
"CC(=O)c1cnc2ccc(-c3cc(F)c(O)c(Cl)c3)cc2c1N[C@H]1CC[C@H](NC(=O)[C@@H](N)C(C)(C)C)CC1 [Example 914, (S)-N-((1r,4S)-4-((3-acetyl-6-(3-chloro-5-fluoro-4-hydroxyphenyl)quinolin-4-yl)amino)cyclohexyl)-2-amino-3,3-dimethylbutanamide hydrochloride]",0.028 µM,0.075 µM,3.6 µM,0.65 µM,0.28 µM,0.19 µM,,,,,
"[2H]C([2H])([2H])N(C[C@H]1CC[C@H](Nc2c(C(C)=O)cnc3ccc(-c4cc(Cl)c(O)c(Cl)c4)cc23)CC1)C([2H])([2H])[2H] [Example 864, 1-(6-(3,5-dichloro-4-hydroxyphenyl)-4-((trans-4-((dimethyl-d6-amino)methyl)cyclohexyl)amino)quinolin-3-yl)ethanone dihydrochloride]",0.0011 µM,0.067 µM,1.3 µM,0.11 µM,0.081 µM,0.043 µM,,,,,
"CN(C)CCOc1ccc(Nc2c(S(C)(=O)=O)cnc3ccc(-c4cc(Cl)c(O)c(Cl)c4)cc23)cn1 [Example 884, 2,6-dichloro-4-(4-((6-(2-(dimethylamino)ethoxy)pyridin-3-yl)amino)-3-(methylsulfonyl)quinolin-6-yl)phenol hydrochloride]",0.0035 µM,0.91 µM,13 µM,2.1 µM,4.1 µM,0.51 µM,,,,,
"CC(=O)c1cnc2ccc(-c3ccc4[nH]ncc4c3)cc2c1N[C@H]1CC[C@H](CN(C)C)CC1 [Example 910, 1-(4-((1R,4R)-4-((dimethylamino)methyl)cyclohexyl)amino)-6-(1H-indazol-5-yl)quinolin-3-yl)ethanone hydrochloride]",0.1 µM,6 µM,9.8 µM,2.6 µM,3.4 µM,5.4 µM,,,,,
"CC(=O)c1cnc2ccc(-c3cc(F)c(O)c(Cl)c3)cc2c1N[C@H]1CC[C@H](C(=O)N(C)C)CC1 [Example 870, (1r,4r)-4-((3-acetyl-6-(3-chloro-5-fluoro-4-hydroxyphenyl)quinolin-4-yl)amino)-N,N-dimethylcyclohexanecarboxamide hydrochloride]",0.035 µM,,,,,,0.53 µM,3.5 µM,1.6 µM,2.3 µM,2.1 µM
CC(=O)c1cnc2ccc(-c3cc(F)c(O)c(Cl)c3)cc2c1N[C@H]1CC[C@H](NC(=O)[C@H](C)N)CC1 (stereo in doubt) [Example 878],0.0079 µM,0.027 µM,21 µM,0.83 µM,0.096 µM,0.03 µM,,,,,
